What follows are compounds tested on IL-12 production in human PBMC or THP-1 cells (assay: Human in vitro assay: inhibition of IL-12 production (ELISA) in stimulated PBMC or THP-1 cells). Conditions: IFNγ plus LPS or SAC stimulation.
Format: cell-based
From the text: The biological activities of a heterocyclic compound can be evaluated by a number of cell-based assays. One of such assays can be conducted using cells from human peripheral blood mononuclear cells (PBMC) or human monocytic cell line (THP-1). The cells are stimulated with a combination of human interferon-γ (IFNγ) and lipopolysaccharide or a combination of IFNγ and Staphylococcus aureus Cowan I in the presence of a test compound. The level of inhibition of IL-12 production can be measured by determining the amount of p70 by using a sandwich ELISA assay with anti-human IL-12 antibodies. IC50 of the test compound can then be determined. Specifically, PBMC or THP-1 cells are incubated with the test compound. Cell viability was assessed using the bioreduction of MTS [3-(4,5-dimethylthiazol-2-yl)-5-(3-carboxymethoxyphenyl)-2-(4-sulfophenyl)-2H-tetrazolium] (Promega, Madison, Wis.).
Reagents. Staphylococcus aureus Cowan I (SAC) is obtained from Calbiochem (La Jolla, Calif.), and lipopolysaccharide (LPS, Serratia marscencens) is obtained from Sigma (St. Louis, Mo.). Human and mouse recombinant IFNγ are purchased from Boehringer Mannheim (Mannheim, Germany) and Pharmingen (San Diego, Calif.), respectively.
Human In Vitro Assay. Human PBMC were isolated by centrifugation using Ficoll-Paque (Pharmacia Biotech, Uppsala, Sweden) and prepared in RPMI medium supplemented with 10% fetal calf serum (FCS), 100 U/mL penicillin, and 100 μg/mL streptomycin. PBMC were plated in wells of a 96-well plate at a concentration of 5×10^5 cells/well, and primed by adding IFNγ (30 U/mL) for 22 h and stimulated by adding LPS (1 vg/mL), or by adding IFNγ (100 U/mL) and then stimulated by adding SAC (0.01%). A test pyridine compound was dissolved in DMSO, and added to wells of the 96-well plate. The final DMSO concentration was adjusted to 0.25% in all cultures, including the compound-free control. Human THP-1 cells were plated in wells, primed by adding IFNγ (100 U/mL) for 22 h and stimulated by adding SAC (0.025%) in the presence of different concentrations of the pyridine compound. Cell-free supernatants were taken 18 h later for measurement of cytokines. Cell viability was assessed using the bioreduction of MTS. Cell survival was estimated by determining the ratio of the absorbance in compound-treated groups versus compound-free control.
The supernatant was assayed for the amount of IL-12p40, IL-12p70, or IL-10 by using a sandwich ELISA with anti-human antibodies, i.e., a Human IL-12 p40 ELISA kit from R&D Systems (Berkeley, Calif.), and a Human IL-12 p70 or IL-10 ELISA kit from Endogen (Cambridge, Mass.). Assays were based on the manufacturer's instructions.
The biological activities of pyridine compounds were tested on human PBMC or THP-1 cells.

Going from `COc1ccc(CCOc2cc(NN=Cc3c[nH]c4ccccc34)cc(N3CCOCC3)n2)cc1OC` [Compound 1, N-{2-[2-(3,4-Dimethoxy-phenyl)-ethoxy]-6-morpholin-4-yl-pyridin-4-yl}-N′-(1H-indol-3-ylmethylene)-hydrazine] to `COc1ccc(CCOc2cc(N3CCOCC3)cc(NN=Cc3c[nH]c4ccccc34)n2)cc1OC` [Compound 2, N-{6-[2-(3,4-Dimethoxy-phenyl)-ethoxy]-4-morpholin-4-yl-pyridin-2-yl}-N′-(1H-indol-3-ylmethylene)-hydrazine], the IC50 falls from 10 nM to 5 nM (2-fold).

First: COc1ccc(CCOc2cc(NN=Cc3c[nH]c4ccccc34)nc(N3CCOCC3)c2)cc1OC [Compound 3, N-{4-[2-(3,4-Dimethoxy-phenyl)-ethoxy]-6-morpholin-4-yl-pyridin-2-yl}-N′-(1H-indol-3-ylmethylene)-hydrazine]
Second: COc1ccc(CCOc2cc(NN=Cc3cccc(C)c3)nc(N3CCOCC3)c2)cc1OC [Compound 5, N-{4-[2-(3,4-Dimethoxy-phenyl)-ethoxy]-6-morpholin-4-yl-pyridin-2-yl}-N′-(3-methyl-benzylidene)-hydrazine]
The IC50 of the first is 2.5-fold lower: 800 nM for the first, 2000 nM for the second.

First: COc1ccc(CCOc2cc(N3CCOCC3)cc(Nc3ccc4[nH]c(C)c(C)c4c3)n2)cc1OC [Compound 4, {6-[2-(3,4-Dimethoxy-phenyl)-ethoxy]-4-morpholin-4-yl-pyridin-2-yl}-(2,3-dimethyl-1H-indol-5-yl)-amine]
Second: COc1ccc(CCOc2cc(Nc3ccc4[nH]c(C)c(C)c4c3)cc(N3CCOCC3)n2)cc1OC [Compound 8, {2-[2-(3,4-Dimethoxy-phenyl)-ethoxy]-6-morpholin-4-yl-pyridin-4-yl}-(2,3-dimethyl-1H-indol-5-yl)-amine]
The IC50 of the first is 7-fold higher: 197 nM for the first, 28 nM for the second.

Going from `COc1ccc(CCOc2cc(NN=Cc3cccc(C)c3)cc(N3CCOCC3)n2)cc1OC` [Compound 6, N-{2-[2-(3,4-Dimethoxy-phenyl)-ethoxy]-6-morpholin-4-yl-pyridin-4-yl}-N′-(3-methyl-benzylidene)-hydrazine] to `COc1ccc(CCOc2cc(N3CCOCC3)cc(NN=Cc3cccc(C)c3)n2)cc1OC` [Compound 7, N-{6-[2-(3,4-Dimethoxy-phenyl)-ethoxy]-4-morpholin-4-yl-pyridin-2-yl}-N′-(3-methyl-benzylidene)-hydrazine], the IC50 rises from 5 nM to 14.1 nM (2.8-fold). The first is the more potent here.

Compared with `COc1ccc(CCOc2cc(Nc3ccc4[nH]c(C)c(C)c4c3)nc(N3CCOCC3)c2)cc1OC` [Compound 9, {4-[2-(3,4-Dimethoxy-phenyl)-ethoxy]-6-morpholin-4-yl-pyridin-2-yl}-(2,3-dimethyl-1H-indol-5-yl)-amine], `COc1ccc(CCOc2cc(Nc3cccc(C)c3)nc(N3CCOCC3)c2)cc1OC` [Compound 10, {4-[2-(3,4-Dimethoxy-phenyl)-ethoxy]-6-morpholin-4-yl-pyridin-2-yl}-m-tolyl-amine] is 14-fold higher in IC50: 350 nM for the first, 5000 nM for the second.

`Cc1cccc(C=NNc2cc(OCCN3CCOC3=O)cc(N3CCOCC3)n2)c1` [Compound 11, 3-(2-{2-[N′-(3-methyl-benzylidene)-hydrazino]-6-morpholin-4-yl-pyridin-4-yloxy}-ethyl)oxazolidin-2-one] and `Cc1cccc(/C=N/Nc2cc(OCCN3CCOC3=O)cc(N3CCOCC3)n2)c1` [Compound 18, 3-(2-{2-[N′-(3-Methyl-benzylidene)-hydrazino]-6-morpholin-4-yl-pyridin-4-yloxy}-ethyl)-oxazolidin-2-one] are the same in IC50: 927 nM for the first, 927 nM for the second.

First: Cc1cccc(C=NNc2nc(OCCN3CCOCC3)c(F)c(N3CCOCC3)c2F)c1 [Compound 12, N-[3,5-Difluoro-4-morpholin-4-yl-6-(2-morpholin-4-yl-ethoxy)-pyridin-2-yl]-N′-(3-methyl-benzylidene)-hydrazine]
Second: Cc1cccc(/C=N/Nc2c(F)c(OCCN3CCOCC3)nc(N3CCOCC3)c2F)c1 [Compound 13, N-[3,5-Difluoro-2-morpholin-4-yl-6-(2-morpholin-4-yl-ethoxy)-pyridin-4-yl]-N′-(3-methyl-benzylidene)-hydrazine]
The IC50 of the first is higher: over 1000 nM for the first, 148 nM for the second. The second is the more potent here.

Compared with `Cc1cccc(/C=N/Nc2cc(N3CCOCC3)cc(OCCN3CCOCC3)n2)c1` [Compound 14, N-(3-Methyl-benzylidene)-N′-[4-morpholin-4-yl-6-(2-morpholin-4-yl-ethoxy)-pyridin-2-yl]-hydrazine], `Cc1ccc(N)c(/C=N/Nc2cc(N3CCOCC3)cc(OCCN3CCOCC3)n2)c1` [Compound 20, 4-Methyl-2-{[4-morpholin-4-yl-6-(2-morpholin-4-yl-ethoxy)-pyridin-2-yl]-hydrazonomethyl}-phenylamine] is 2.2-fold lower in IC50: 25 nM for the first, 11.4 nM for the second.

Compared with `C(=N\Nc1cc(N2CCOCC2)cc(OCCN2CCOCC2)n1)/c1c[nH]c2ccccc12` [Compound 16, N-(1H-Indol-3-ylmethylene)-N′-[4-morpholin-4-yl-6-(2-morpholin-4-yl-ethoxy)-pyridin-2-yl]-hydrazine], `C(=N\Nc1cc(N2CCOCC2)cc(OCCN2CCOCC2)n1)/c1ccoc1` [Compound 19, N-Furan-3-ylmethylene-N′-[4-morpholin-4-yl-6-(2-morpholin-4-yl-ethoxy)-pyridin-2-yl]-hydrazine] is 140-fold higher in IC50: 36.6 nM for the first, 5000 nM for the second. The first is the more potent here.

Going from `Cc1cccc(/C=N/N(C)c2cc(N3CCOCC3)cc(OCCN3CCOCC3)n2)c1` [Compound 17, N-Methyl-N′-(3-methyl-benzylidene)-N-[4-morpholin-4-yl-6-(2-morpholin-4-yl-ethoxy)-pyridin-2-yl]-hydrazine] to `Cc1cccc(/C=N/Nc2cc(N3CCOCC3)cc(OCCN3CCOCC3)[n+]2[O-])c1` [Compound 21, N-(3-Methyl-benzylidene)-N′-[4-morpholin-4-yl-6-(2-morpholin-4-yl-ethoxy)-1-oxy-pyridin-2-yl]-hydrazine], the IC50 rises from 14.2 nM to 86 nM (6.1-fold). The first is the more potent here.

These compounds were tested on adjuvant arthritis (AA) in female Lewis rats (assay: In vivo adjuvant arthritis assay in rats). Conditions: oral, once a day for 7 days (day 7-14); dose-dependent; experiments repeated four times; FIG. 1.
Parameters: species or system rat
Procedure: Treatment of adjuvant arthritis in rats: Adjuvant arthritis (AA) was induced in female Lewis rats by the intracutaneous injection (base of the tail) of 0.1 mL of a 10 mg/mL bacterial suspension made from ground, heat-killed Mycobacterium tuberculosis H37Ra suspended in incomplete Freund's adjuvant. Rats were given a test compound orally once a day for 7 days (day 7-14), starting day 7 after mycobacterium induction. The development of polyarthritis was monitored daily by macroscopic inspection and assignment of an arthritis index to each animal, during the critical period (days 10 to 25 post-immunization).
The intensity of polyarthritis was scored according to the following scheme: (a) Grade each paw from 0 to 3 based on erythema, swelling, and deformity of the joints: 0 for no erythema or swelling; 0.5 if swelling is detectable in at least one joint; 1 for mild swelling and erythema; 2 for swelling and erythema of both tarsus and carpus; and 3 for ankylosis and bony deformity.
Maximum score for all 4 paws was thus 12. (b) Grade for other parts of the body: for each ear, 0.5 for redness and another 0.5 if knots are present; 1 for connective tissue swelling (saddle nose); and 1 for the presence of knots or kinks in the tail. The highest possible arthritic index was 16.
Experiments with the AA model were repeated four times.

With `Cc1cccc(/C=N/Nc2cc(N3CCOCC3)cc(OCCN3CCOCC3)n2)c1` [Compound 14, N-(3-Methyl-benzylidene)-N′-[4-morpholin-4-yl-6-(2-morpholin-4-yl-ethoxy)-pyridin-2-yl]-hydrazine] the arthritic score was “reproducibly reduced the arthritic score”.

For `Cc1cccc(/C=N/Nc2cc(N3CCOCC3)cc(OCCN3CCOCC3)n2)c1` [Compound 14, N-(3-Methyl-benzylidene)-N′-[4-morpholin-4-yl-6-(2-morpholin-4-yl-ethoxy)-pyridin-2-yl]-hydrazine], the development of polyarthritis was “delayed the development of polyarthritis”.

Source: US8173651B2, “Pyridine compounds” (Synta Pharmaceuticals Corporation, priority 2003, dated 2012)
